Test results from ChEMBL document CHEMBL1130163, “Synthesis and inhibition studies of sulfur-substituted squalene oxide analogues as mechanism-based inhibitors of 2,3-oxidosqualene-lanosterol cyclase” (J Med Chem, 1997).

Target: T1, Lanosterol synthase (Rattus norvegicus, UniProt P48450)
T1 sequence (P48450 whole entry): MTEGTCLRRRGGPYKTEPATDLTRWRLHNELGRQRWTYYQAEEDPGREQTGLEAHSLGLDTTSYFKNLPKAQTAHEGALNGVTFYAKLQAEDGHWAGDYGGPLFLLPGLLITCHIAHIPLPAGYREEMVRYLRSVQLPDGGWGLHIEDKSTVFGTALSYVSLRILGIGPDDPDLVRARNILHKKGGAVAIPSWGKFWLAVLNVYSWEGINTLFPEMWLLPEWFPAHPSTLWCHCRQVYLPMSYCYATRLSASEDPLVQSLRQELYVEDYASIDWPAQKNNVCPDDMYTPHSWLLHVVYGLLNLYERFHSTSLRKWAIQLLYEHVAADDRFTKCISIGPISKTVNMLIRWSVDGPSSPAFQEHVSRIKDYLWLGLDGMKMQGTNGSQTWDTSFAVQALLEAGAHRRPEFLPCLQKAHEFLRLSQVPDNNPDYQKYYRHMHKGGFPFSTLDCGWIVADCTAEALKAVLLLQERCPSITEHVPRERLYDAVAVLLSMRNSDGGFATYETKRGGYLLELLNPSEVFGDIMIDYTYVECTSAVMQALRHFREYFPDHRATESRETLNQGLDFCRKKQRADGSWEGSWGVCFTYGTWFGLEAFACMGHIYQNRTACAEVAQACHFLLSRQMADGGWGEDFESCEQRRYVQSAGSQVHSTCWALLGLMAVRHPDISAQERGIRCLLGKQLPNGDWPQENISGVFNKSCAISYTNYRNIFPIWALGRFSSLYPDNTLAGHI
Assay: Inhibition against rat liver Oxidosqualene-lanosterol cyclase

## CC(C)=CCCC1(C)OC1CC/C(C)=C/CC/C=C(\C)CCCC(C)CCC1OC1C (stereo unspecified)
  IC50: 110 nM
